# Reference: publication PMC7617869, “Molecular glues that inhibit deubiquitylase activity and inflammatory signaling” (Nature Structural & Molecular Biology, 2025)
# “And” between values parts separate entries of the source, which are not always exact repeats. Identical values can stand only once. Like-named read-outs stand apart in the source and are kept apart here.
# Columns and labels:
# [1] = biological target: T1, BRISC (Homo sapiens, UniProt P46736+Q15018+Q9NXR7); experiment: BRISC DUB activity assay (IQF K63-linked diubiquitin); type: biochemical
# T1 construct: made in house; host or cells: Spodoptera frugiperda (Sf9) insect cells, MultiBac
# Summary of the method: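 Enzyme at 1 nM (BRISC WT or mutant) hydrolysed 50 nM IQF K63 diubiquitin in 50 mM HEPES–NaOH pH 7.0, 100 mM NaCl buffer at 30 °C. Kinetic fluorescence at 544/575 nm gave V0 over 30 min. Dose–response curves were fitted with variable slope to give IC50.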
# [2] = test system: IFNAR1 cell surface levels in sgROSA MCF10A cells; experiment: MCF10A sgROSA IFNAR1 cell surface levels (FACS); type: cell-based, human
# Procedure: To study the direct effect of BRISC DUB inhibitors, IFNAR1 surface levels were measured using flow cytometry (FACS) analysis. For this purpose, MCF10A WT and MCF10A BRCC45 KO cells expressing […]
# BRCC45 WT or BRCC45 R137A were used. […]
# minutes prior to the addition of 50 ng/mL of hIFN-Iα for various time points (45 minutes and 90 minutes).
# After IFN treatment, cells were dissociated from plate using cell dissociation Buffer (ThermoFisher Scientific, #13150016) and were stained with LIVE/DEAD™ Fixable Violet Dead Cell Stain Kit, for 405 nm excitation (ThermoFisher Scientific, #L34963) for 30 minutes, as per the kit protocol. The cells were then washed using FACS buffer (DPBS, 1% BSA, 2 mM EDTA, 0.09% sodium azide) and transferred to 96-well round bottom plates. Resuspended cells were divided into three repeats for each sample, each was surface stained for 1 hour at 4 °C with: 1. Human IFN-alpha/beta R1 Antibody (R&D systems, #MAB245), 2. Mouse IgG1 Isotype Control (R&D systems, #MAB002), 3. FACS buffer (control cells).
# Following incubation, cells were washed once with FACS buffer and were labelled for 30 minutes at 4 °C with either Biotin-SP-conjugated AffiniPure Donkey Anti-Mouse IgG (H+L) (Jackson Immunoresearch Laboratories) for samples 1 and 2 or with FACS buffer for sample 3. Cells were washed twice with FACS buffer and were labelled for 15 minutes at 4 °C with either R-Phycoerythrin-conjugated Streptavidin (Jackson Immunoresearch Laboratories) for samples 1 and 2 or with FACS buffer for sample 3. Cells were washed 3 times with FACS buffer and were analysed by FACS (MACSQuant, Miltenyi Biotec). For each sample from group 1 the Geo mean fluorescence intensity (MFI) of its isotype sample was reduced. IFNAR1 cell surface percentage was calculated by 100*(MFI
compound,measurement,setting,value
O=C(NC1C2CNCC21)c1nn(C(=O)c2c(Cl)cccc2Cl)cc1NC(=O)c1c(Cl)cccc1Cl (stereo not shown) [FX-171-C],IC50,"[1]; 32-point dose-response, biphasic fit, read-out: IC50(1), biphasic curve",7.2 µM
same,IC50,"[1]; 32-point dose-response, biphasic fit, read-out: IC50(2), biphasic curve",0.149 µM
same,remaining activity at 0.35 µM,"[1]; BRISC WT, FX-171-C 0.35 μM, read-out: Normalised V0",54.2%
same,remaining activity at 6.25 µM,"[1]; BRISC WT, FX-171-C 6.25 μM, read-out: Normalised V0",13%
same,IC50,"[1]; FX-171-C IC50, BRISC WT, mutant panel (Extended Data Fig. 7c)",0.6 µM
same,Normalised V0,"[1]; Fig. 1g, BRISC, FX-171-C 0.0599997 μM",1.019
same,Normalised V0,"[1]; Fig. 1g, BRISC, FX-171-C 0.0799994 μM",0.9329 and 1.215 and 0.984
same,Normalised V0,"[1]; Fig. 1g, BRISC, FX-171-C 0.119998 μM",0.8991 and 1.297 and 1.1131
same,Normalised V0,"[1]; Fig. 1g, BRISC, FX-171-C 0.199996 μM",0.9109 and 1.1 and 0.9714
same,Normalised V0,"[1]; Fig. 1g, BRISC, FX-171-C 0.499975 μM",0.8337 and 0.8541 and 0.839
same,Normalised V0,"[1]; Fig. 1g, BRISC, FX-171-C 0.799936 μM",0.8201 and 0.7671 and 0.7222
same,Normalised V0,"[1]; Fig. 1g, BRISC, FX-171-C 1.25984 μM",0.7744 and 0.5965 and 0.5179
same,Normalised V0,"[1]; Fig. 1g, BRISC, FX-171-C 1.9996 μM",0.7381 and 0.4197 and 0.4126
same,Normalised V0,"[1]; Fig. 1g, BRISC, FX-171-C 3.159 μM",0.4028 and 0.2971 and 0.3289
same,Normalised V0,"[1]; Fig. 1g, BRISC, FX-171-C 5.19739 μM",0.6152 and 0.3188 and 0.3118
same,remaining activity at 0.0599997 µM,"[1]; HsBRISC, FX-171-C 0.0599997 μM, read-out: Normalised V0",102%
same,remaining activity at 0.199996 µM,"[1]; HsBRISC, FX-171-C 0.199996 μM, read-out: Normalised V0",91.1%
same,remaining activity at 0.499975 µM,"[1]; HsBRISC, FX-171-C 0.499975 μM, read-out: Normalised V0",83.4%
same,remaining activity at 0.799937 µM,"[1]; HsBRISC, FX-171-C 0.799937 μM, read-out: Normalised V0",82%
same,remaining activity at 3.159 µM,"[1]; HsBRISC, FX-171-C 3.159 μM, read-out: Normalised V0",40.3%
same,remaining activity at 19.96 µM,"[1]; HsBRISC, FX-171-C 19.96 μM, read-out: Normalised V0",18.8%
same,remaining activity at 31.4999 µM,"[1]; HsBRISC, FX-171-C 31.4999 μM, read-out: Normalised V0",18.9%
same,remaining activity at 79.7601 µM,"[1]; HsBRISC, FX-171-C 79.7601 μM, read-out: Normalised V0",22.3%
same,remaining activity at 125.99 µM,"[1]; HsBRISC, FX-171-C 125.99 μM, read-out: Normalised V0",16.2%
same,IC50,"[1]; IQF K63-linked diubiquitin substrate, read-out: IC50, inhibition of BRISC DUB activity",1.4 µM
same,Normalised V0,"[1]; [Inhibitor] 0.013 μM, replicate columns",0.9661 and 1.259 and 1.028 and 1.106 and 0.9509 and 0.8874
same,Normalised V0,"[1]; [Inhibitor] 0.02 μM, replicate columns",0.8164 and 1.359 and 1.027
same,Normalised V0,"[1]; [Inhibitor] 0.0399999 μM, replicate columns",0.8327 and 1.212 and 1.032
same,Normalised V0,"[1]; [Inhibitor] 0.0599997 μM, replicate columns",1.019 and 1.179 and 1.007
same,Normalised V0,"[1]; [Inhibitor] 0.0799994 μM, replicate columns",0.9329 and 1.215 and 0.984
same,Normalised V0,"[1]; [Inhibitor] 0.119998 μM, replicate columns",0.8991 and 1.297 and 1.1131
same,Normalised V0,"[1]; [Inhibitor] 0.199996 μM, replicate columns",0.9109 and 1.1 and 0.9714
same,Normalised V0,"[1]; [Inhibitor] 0.499975 μM, replicate columns",0.8337 and 0.8541 and 0.839
same,Normalised V0,"[1]; [Inhibitor] 0.799936 μM, replicate columns",0.8201 and 0.7671 and 0.7222
same,Normalised V0,"[1]; [Inhibitor] 1.25984 μM, replicate columns",0.7744 and 0.5965 and 0.5179
same,Normalised V0,"[1]; [Inhibitor] 1.9996 μM, replicate columns",0.7381 and 0.4197 and 0.4126
same,Normalised V0,"[1]; [Inhibitor] 3.159 μM, replicate columns",0.4028 and 0.2971 and 0.3289
same,Normalised V0,"[1]; [Inhibitor] 5.19739 μM, replicate columns",0.6152 and 0.3188 and 0.3118
same,Normalised V0,"[1]; [Inhibitor] 7.99364 μM, replicate columns",0.4919 and 0.2336 and 0.2963
same,Normalised V0,"[1]; [Inhibitor] 12.7839 μM, replicate columns",0.5596 and 0.3112 and 0.2492
same,Normalised V0,"[1]; [Inhibitor] 19.96 μM, replicate columns",0.1876 and 0.174 and 0.161
same,Normalised V0,"[1]; [Inhibitor] 31.4999 μM, replicate columns",0.1887 and 0.2421 and 0.2131
same,Normalised V0,"[1]; [Inhibitor] 50.147 μM, replicate columns",0.05691 and 0.1395 and 0.2567
same,Normalised V0,"[1]; [Inhibitor] 79.7601 μM, replicate columns",0.2227 and 0.2164 and 0.1439
same,Normalised V0,"[1]; [Inhibitor] 125.99 μM, replicate columns",0.1622 and 0.2082 and 0.2077
same,Normalised V0,"[1]; [Inhibitor] 199.922 μM, replicate columns",0.03119 and 0.1486 and 0.1232
same,potency ranking over BRISC orthologs,[1]; human vs mouse and zebrafish BRISC,highest potency toward human BRISC over mouse and zebrafish BRISC
same,Normalised velocity (V0),[1]; inhibitor 0.000794328 μM,1
same,Normalised velocity (V0),[1]; inhibitor 0.00125892 μM,0.9709 and 1.087
same,Normalised velocity (V0),[1]; inhibitor 0.00199526 μM,0.9893 and 1.074
same,Normalised velocity (V0),[1]; inhibitor 0.00316228 μM,1.07 and 1.182
same,Normalised velocity (V0),[1]; inhibitor 0.00501187 μM,1.042 and 1.106
same,Normalised velocity (V0),[1]; inhibitor 0.00794328 μM,1.04 and 1.13
same,Normalised velocity (V0),[1]; inhibitor 0.0125893 μM,0.9855 and 1.097
same,Normalised velocity (V0),[1]; inhibitor 0.0199526 μM,1.04 and 1.062
same,Normalised velocity (V0),[1]; inhibitor 0.0316228 μM,0.9173 and 1.065
same,Normalised velocity (V0),[1]; inhibitor 0.0501187 μM,0.915 and 1.002
same,Normalised velocity (V0),[1]; inhibitor 0.0794328 μM,0.8247 and 0.8903
same,Normalised velocity (V0),[1]; inhibitor 0.125893 μM,0.6057 and 0.745
same,Normalised velocity (V0),[1]; inhibitor 0.199526 μM,0.5727 and 0.6444
same,Normalised velocity (V0),[1]; inhibitor 0.316228 μM,0.4326 and 0.4719
same,Normalised velocity (V0),[1]; inhibitor 0.398107 μM,0.425 and 0.486
same,Normalised velocity (V0),[1]; inhibitor 0.630957 μM,0.3369 and 0.3696
same,Normalised velocity (V0),[1]; inhibitor 1 μM,0.2871 and 0.3028
same,Normalised velocity (V0),[1]; inhibitor 1.58489 μM,0.2427 and 0.2962
same,Normalised velocity (V0),[1]; inhibitor 2.51189 μM,0.2711 and 0.2368
same,Normalised velocity (V0),[1]; inhibitor 3.98107 μM,0.2213 and 0.2236
same,Normalised velocity (V0),[1]; inhibitor 6.30957 μM,0.121 and 0.1898
same,Normalised velocity (V0),[1]; inhibitor 10 μM,0.08882 and 0.07343
same,Normalised velocity (V0),[1]; inhibitor 15.8489 μM,0.08806 and 0.08498
same,Normalised velocity (V0),[1]; inhibitor 25.1189 μM,0
same,Normalised velocity (V0),[1]; inhibitor 39.8107 μM,0
same,Normalised velocity (V0),[1]; inhibitor 63.0957 μM,0
same,Normalised velocity (V0),[1]; inhibitor 100 μM,0
same,IFNAR1 cell surface levels,"[2]; IFN + compound, three replicates",42.0302 and 41.4187 and 41.1741
same,IFNAR1 cell surface levels,"[2]; sgROSA cells, IFN 50 ng/ml, 5 μM, 90 min",reduction in IFNAR1 cell surface levels
